Assay results as given in PMC7140522, “The Pyrazolo[3,4-d]pyrimidine Derivative, SCO-201, Reverses Multidrug Resistance Mediated by ABCG2/BCRP” (Cells, 2020).
Where two headings read alike, the source gives them in different places.

Legend:
[1] = design: method as in PMID 26260222; settings: cited from earlier work
ABCG2 = target: T1, ABCG2 (Homo sapiens, UniProt Q9UNQ0); assay: Pheophorbide A accumulation assay in MDCK cells; type: cell-based; settings: flow cytometry
T1 construct: expressed in transfected cells; host or cells: MDCK-II (canine kidney)

BCRP [2] = target: T2, BCRP (Homo sapiens, UniProt Q9UNQ0); assay: Cellular dye efflux assay (Hoechst 33342) in HT29SN-38-RES cells; type: cell-based; design: endogenous in cells; host or cells: HT29 SN-38-RES (drug-selected HT29)
T2 sequence (Q9UNQ0 1-655): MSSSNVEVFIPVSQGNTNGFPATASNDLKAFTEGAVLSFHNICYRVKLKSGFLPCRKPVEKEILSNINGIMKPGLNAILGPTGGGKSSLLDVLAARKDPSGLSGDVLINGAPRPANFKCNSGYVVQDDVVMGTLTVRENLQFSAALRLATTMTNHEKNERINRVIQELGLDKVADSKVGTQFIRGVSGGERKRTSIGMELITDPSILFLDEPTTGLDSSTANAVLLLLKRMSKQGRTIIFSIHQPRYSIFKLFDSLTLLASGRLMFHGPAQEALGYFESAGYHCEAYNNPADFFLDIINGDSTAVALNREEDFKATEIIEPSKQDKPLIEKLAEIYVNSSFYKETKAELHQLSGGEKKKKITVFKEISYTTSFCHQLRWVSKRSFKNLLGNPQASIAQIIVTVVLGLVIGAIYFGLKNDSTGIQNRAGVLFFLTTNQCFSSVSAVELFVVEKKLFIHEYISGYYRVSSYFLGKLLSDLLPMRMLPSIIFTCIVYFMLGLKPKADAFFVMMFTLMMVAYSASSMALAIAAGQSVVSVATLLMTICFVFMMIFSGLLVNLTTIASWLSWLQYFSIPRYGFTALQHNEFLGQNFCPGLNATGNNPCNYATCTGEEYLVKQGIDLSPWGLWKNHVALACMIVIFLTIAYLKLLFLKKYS

BCRP [3] = target: T2, BCRP; assay: Fluorometric transporter inhibition, BCRP-CHO; type: in vitro ADME; settings: Hoechst 33342 substrate
Protocol: Cells were seeded in a 96-well plate (20,000 cells/well) and used on days 2 or 3 post-seeding. […] Subsequently, substrate was added to the plate followed by 20 min incubation at 37 °C. The plate was then washed with cold assay buffer followed by fluorescence reading on a plate reader. The tested transporters, cell lines, substrates, and reference inhibitors are shown in the Supplementary Materials (Tables S1 and S2).
110 Table S1. […]
120 transporters (P-gp and BCRP), increased fluorescence signal represents inhibition of the transporter activity.
The IC50 values are shown for the analysed transporters with […]

[4] = test system: CYP1A, CYP2B6, CYP2C8, CYP2C9, CYP2C19, CYP2D6, CYP3A; assay: in vitro; settings: both, human, pooled human liver microsomes, pH 7.4
CYP1A2 = assay: CYP induction in human hepatocytes, CYP1A2 mRNA; type: in vitro ADME; settings: plated human hepatocytes
CYP2B6 = assay: CYP induction in human hepatocytes, CYP2B6 enzyme activity; type: in vitro ADME

IC50 (ABCG2): 145 nM
IC50 (BCRP [2]; imaging cytometry, read-out: IC50, accumulation of Hoechst dye): 450 nM
IC50 (BCRP [3]): 1700 nM
IC50 at 10 min [4]: ≥ 100000 nM
fold induction at 2 days (CYP1A2; Donor 1, read-out: Mean Fold Induction of mRNA at 1× 10^−4 M): 0.24
fold induction at 2 days (CYP1A2; Donor 2, read-out: Mean Fold Induction of mRNA at 1× 10^−4 M): 0.39
fold induction at 2 days (CYP1A2; Donor 3, read-out: Mean Fold Induction of mRNA at 1× 10^−4 M): 0.26
Mean Fold Enzyme Activity Induction at 1 × 10^−4 M (CYP2B6; Donor 1): 0.8
Mean Fold Enzyme Activity Induction at 1 × 10^−4 M (CYP2B6; Donor 2): 0.9
Mean Fold Enzyme Activity Induction at 1 × 10^−4 M (CYP2B6; Donor 3): 0.6
SMILES: Nc1nc(-c2ccccc2)nc2[nH]nc(Nc3ccc(C(F)(F)F)cc3)c12 [SCO-201]
stability in serum [1]: stable in serum
Hoechst accumulation in resistant cells (BCRP [2]; fluorescence microscopy and imaging cytometry): accumulated to the level of the parental control cells
